8 molecules from US5137811A, “Method for diagnosing periodontal diseases with a substrate specific for aminopeptidase activity of periodontopathic bacteria” (Sunstar Kabushiki Kaisha, priority 1986, dated 1992) can be followed below.

SMILES strings stand for the structures. *1 amine or outer side, *2 acyl side, *3 side chain or, on linkers, in order; H or OH if unused. Where a SMILES comes first, the peptide text is derived from it. The star is where a group is joined. Suc = O=C(CCC(=O)[*:2])[*:1]; βNA = c1ccc2cc(N*)ccc2c1; Cbz = O=C(OCc1ccccc1)*; Bz = O=C(c1ccccc1)*

What all share (test): Hydrolytic activity of cell suspension on aminopeptidase substrates (Experiment 2)
Common to all, as to assay type: cell-based

For one assay, the system named is Actinomyces israelli. The settings on record: two strains, Table 2. How it is done:
(§1) The strains of Treponema were anaerobically cultivated using TYGVS media at 37° C. for 7 days, while other bacterial strains were cultivated using brain heart infusion broth at 37° C. for 48 to 72 hours. Each culture was diluted to obtain a bacterial cell suspension, the absorption at 660 nm of which was 1.0.
(§2) Substrate compounds for aminopeptidase enzyme having various color developing groups derived from β-naphthylamine were dissolved in 0.1M Tris-HCl buffer (pH 7.0) at the concentration of 0.2 mM to obtain substrate solutions.
(§3) To the substrate solution (1.5 ml) was added the above cell suspension (0.3 ml) and reacted at 37° C. for 60 minutes. After completion of the reaction, a coloring reagent [prepared by dissolving diazonium salt of Garnet GBC in 1M acetate buffer (containing 10% Tween 20, pH: 4.2) at the concentration of 0.5 mg/ml] was added and, after 15 minutes, the absorption at 525 nm was determined with a spectrophotometer.
(§4) On the basis of the average amount of released β-naphthylamine in each strain, the hydrolytic activity was expressed as follows: […]
(§5) According to the same manner as described in Experiment 1, periodontopathic bacteria specific aminopeptidase activity was tested by using four strains of Treponema denticola, five strains of B. gingivalis, three strains of B. intermedius, two strains of B. melaninogenicus, two strains of Actinomyces israelli, four strains of Actinobacillus actinomycetemcomitans and three strains of Fusobacterium nucleatum. Abbreviations used in Table 2 mean the following substrate compounds.

For the next assay, the system named is Treponema denticola. The following applies: four strains, Table 2. How it is done:
as §1, §2, §3, §4, §5

The subject of another assay is B. melaninogenicus. The following applies: two strains, Table 2. How it is done:
as §1, §2, §3, §4, §5

For the next assay, the system named is Fusobacterium nucleatum. The following applies: three strains, Table 2. How it is done: as §1, §2, §3, §4, §5
A further assay relates to B. intermedius. The settings on record: three strains, Table 2. On the procedure: as §1, §2, §3, §4, §5
For assay [1], the system named is Actinobacillus actinomycetemcomitans. The following applies: four strains, Table 2. On the procedure: as §1, §2, §3, §4, §5
Another assay has as its system B. corporis. The following applies: Table 2. On the procedure:
as §1, §2, §3, §4, §5

In the next assay the test system is B. gingivalis. The following applies: five strains, Table 2. How it is done:
as §1, §2, §3, §4, §5

The next assay deals with B. denticola. The following applies: Table 2. On the procedure: as §1, §2, §3, §4, §5

`O=C(CNC(=O)c1ccccc1)N[C@@H](Cc1ccccc1)C(=O)N1CCC[C@H]1C(=O)Nc1ccc2ccccc2c1` [BzGFP, N-benzoyl-glycyl-phenylalanyl-proline-β-naphthylamide] (Bz-Gly-Phe-Pro-βNA): the “hydrolytic activity (average amount of released β-naphthylamine)” value (“hydrolytic activity” below) is on record as “- (release amount<5 nmol/ml)” in the assay with Actinomyces israelli; “+++ (release amount≥40 nmol/ml)” with Treponema denticola; “++ (20 ≤release amount<40 nmol/ml)” in the assay on B. melaninogenicus; “- (release amount<5 nmol/ml)” in the assay on Fusobacterium nucleatum; “+++ (release amount≥40 nmol/ml)” with B. intermedius; “- (release amount<5 nmol/ml)” in assay [1]. Besides, the “hydrolytic activity” value in the assay with B. corporis, with B. gingivalis and in the assay on B. denticola was “++ (20 ≤release amount<40 nmol/ml)” in each case.
For the molecule `O=C(NCC(=O)N1CCC[C@H]1C(=O)Nc1ccc2ccccc2c1)c1ccccc1` [BzGP, N-benzoyl-glycyl-proline-β-naphthylamide] (Bz-Gly-Pro-βNA), the “hydrolytic activity” value in the assay with Actinomyces israelli is listed as “- (release amount<5 nmol/ml)”; in the assay with Treponema denticola, “++ (20 ≤release amount<40 nmol/ml)”; in the assay with B. melaninogenicus, “++ (20 ≤release amount<40 nmol/ml)”; in the assay with Fusobacterium nucleatum, “- (release amount<5 nmol/ml)”; in the assay on B. intermedius, “+++ (release amount≥40 nmol/ml)”; in [1], “- (release amount<5 nmol/ml)”. In addition, the “hydrolytic activity” value in the assay with B. corporis, in the assay on B. gingivalis and in the assay with B. denticola was “++ (20 ≤release amount<40 nmol/ml)” in each case.
Regarding `CC(C)[C@H](NC(=O)OCc1ccccc1)C(=O)N[C@@H](CCCCN)C(=O)N1CCC[C@H]1C(=O)Nc1ccc2ccccc2c1` [CxVKP, N-carbobenzoxy-valyl-lysyl-proline-β-naphthylamide] (Cbz-Val-Lys-Pro-βNA), the “hydrolytic activity” value in the assay on Actinomyces israelli is “- (release amount<5 nmol/ml)”; in the assay on Treponema denticola, “++ (20 ≤release amount<40 nmol/ml)”; in the assay with B. melaninogenicus, “++ (20 ≤release amount<40 nmol/ml)”; in the assay on Fusobacterium nucleatum, “- (release amount<5 nmol/ml)”; in the assay with B. intermedius it was “++ (20 ≤release amount<40 nmol/ml)”; in assay [1], “- (release amount<5 nmol/ml)”. The “hydrolytic activity” value in the assay on B. corporis, in the assay on B. gingivalis and in the assay on B. denticola was “++ (20 ≤release amount<40 nmol/ml)” each time.
With `N[C@@H](Cc1ccccc1)C(=O)N1CCC[C@H]1C(=O)Nc1ccc2ccccc2c1` [FP, phenylalanyl-proline-β-naphthylamide] (H-Phe-Pro-βNA), the “hydrolytic activity” value is “- (release amount<5 nmol/ml)” in the assay on Actinomyces israelli; “++ (20 ≤release amount<40 nmol/ml)” in the assay on Treponema denticola; “+ (10 ≤release amount<20 nmol/ml)” in the assay with B. melaninogenicus; “- (release amount<5 nmol/ml)” in the assay on Fusobacterium nucleatum; “+ (10 ≤release amount<20 nmol/ml)” in the assay on B. intermedius; “- (release amount<5 nmol/ml)” in assay [1]. The “hydrolytic activity” value in the assay on B. corporis is given as “+ (10 ≤release amount<20 nmol/ml)”; in the assay with B. gingivalis it was “++ (20 ≤release amount<40 nmol/ml)”; in the assay on B. denticola it was “+ (10 ≤release amount<20 nmol/ml)”.
Consider `CC(C)C[C@H](N)C(=O)NCC(=O)Nc1ccc2ccccc2c1` [LG, leucyl-glycine-β-naphthylamide, reference compound] (H-Leu-Gly-βNA), for which the “hydrolytic activity” value is recorded as “- (release amount<5 nmol/ml)” in the assay with Actinomyces israelli; “- (release amount<5 nmol/ml)” with Treponema denticola; “+++ (release amount≥40 nmol/ml)” in the assay with B. melaninogenicus; “- (release amount<5 nmol/ml)” in the assay on Fusobacterium nucleatum; “- (release amount<5 nmol/ml)” with B. intermedius; “- (release amount<5 nmol/ml)” in [1]. In addition, the “hydrolytic activity” value is given as “++ (20 ≤release amount<40 nmol/ml)” in the assay with B. corporis, “+ (10 ≤release amount<20 nmol/ml)” with B. gingivalis and “++ (20 ≤release amount<40 nmol/ml)” in the assay on B. denticola.
`O=C(Nc1ccc2ccccc2c1)[C@@H]1CCCN1` [P, proline-β-naphthylamide, reference compound]: the “hydrolytic activity” value is reported as “- (release amount<5 nmol/ml)” in the assay on Actinomyces israelli; “+ (10 ≤release amount<20 nmol/ml)” in the assay on Treponema denticola; “- (release amount<5 nmol/ml)” in the assay on B. melaninogenicus; “- (release amount<5 nmol/ml)” in the assay with Fusobacterium nucleatum; “- (release amount<5 nmol/ml)” in the assay with B. intermedius; “- (release amount<5 nmol/ml)” in assay [1]. The “hydrolytic activity” value with B. corporis, with B. gingivalis and in the assay on B. denticola was “- (release amount<5 nmol/ml)” each time.
Regarding `N[C@@H](CO)C(=O)N[C@@H](Cc1ccc(O)cc1)C(=O)Nc1ccc2ccccc2c1` [SY, seryl-tyrosine-β-naphthylamide, reference compound] (H-Ser-Tyr-βNA), the “hydrolytic activity” value in the assay with Actinomyces israelli was “- (release amount<5 nmol/ml)”; in the assay with Treponema denticola it was “- (release amount<5 nmol/ml)”; in the assay on B. melaninogenicus, “± (5 ≤release amount<10 nmol/ml)”; in the assay with Fusobacterium nucleatum, “- (release amount<5 nmol/ml)”; with B. intermedius it was “- (release amount<5 nmol/ml)”; in assay [1], “- (release amount<5 nmol/ml)”. Also, the results for the “hydrolytic activity” value in the assay with B. corporis, in the assay with B. gingivalis and in the assay on B. denticola were “± (5 ≤release amount<10 nmol/ml)”, “++ (20 ≤release amount<40 nmol/ml)” and “± (5 ≤release amount<10 nmol/ml)”, respectively.
As for `CC(C)C[C@H](NC(=O)[C@@H]1CCCN1C(=O)CNC(=O)CCC(=O)O)C(=O)NCC(=O)N1CCC[C@H]1C(=O)Nc1ccc2ccccc2c1` [ScGPLGP, N-succinyl-glycyl-prolyl-leucyl-glycyl-proline-β-naphthylamide] (Suc-GPLGP-βNA), the “hydrolytic activity” value with Actinomyces israelli is “- (release amount<5 nmol/ml)”; with Treponema denticola it was “+ (10 ≤release amount<20 nmol/ml)”; with B. melaninogenicus, “± (5 ≤release amount<10 nmol/ml)”; in the assay on Fusobacterium nucleatum, “- (release amount<5 nmol/ml)”; in the assay on B. intermedius, “+ (10 ≤release amount<20 nmol/ml)”; in assay [1], “- (release amount<5 nmol/ml)”. Further, the “hydrolytic activity” value with B. corporis, with B. gingivalis and in the assay with B. denticola was “± (5 ≤release amount<10 nmol/ml)” in each case.
